System: AMPK
Assay: AMPK activation assay (enzyme-linked immunosorbent assay)
Assay type: cell-based
How it was run: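 Compounds were tested for their capacity to activate the kinase using standard, commercially available kit reagents and procedures.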

**Q.** COc1ccc(CN2CCN(C(=O)c3ccc(C(=O)NC4CCN(Cc5ccc(C#N)cc5)CC4)nc3)CC2)cc1 [Compound 101, N-(1-(4-cyanobenzyl)piperidin-4-yl)-5-(4-(4-methoxybenzyl)piperazine-1-carbonyl)picolinamide] was tested. Which EC50 did it give?
**A.** < 500 nM

**Q.** For N#Cc1ccc(CN2CCC(NC(=O)c3ccc(C(=O)N4CCN(Cc5ccncc5)CC4)cn3)CC2)cc1 [Compound 103, N-(1-(4-cyanobenzyl)piperidin-4-yl)-5-(4-(pyridin-4-ylmethyl)piperazine-1-carbonyl)picolinamide], which EC50 is on record?
**A.** < 500 nM

**Q.** With O=C(Nc1ccc(-c2ccccc2)cc1)c1ccc(C(=O)NC2CCN(Cc3ccccc3)CC2)nc1 [Compound 105, N2-(1-benzylpiperidin-4-yl)-N5-(biphenyl-4-yl)pyridine-2,5-dicarboxamide] as the molecule, how does the EC50 read?
**A.** > 10000 nM

**Q.** Which EC50 does the source give for O=C(Nc1cccc(-c2ccccc2)c1)c1ccc(C(=O)NC2CCN(Cc3ccccc3)CC2)nc1 [Compound 106, N2-(1-benzylpiperidin-4-yl)-N5-(biphenyl-3-yl)pyridine-2,5-dicarboxamide] here?
**A.** 5000 to 10000 nM

**Q.** Which EC50 does the source give for O=C(Nc1ccccc1)c1ccc(C(=O)N2CCN(Cc3ccc(F)cc3)CC2)cn1 [Compound 107, 5-(4-(4-fluorobenzyl)piperazine-1-carbonyl)-N-phenylpicolinamide] here?
**A.** 5000 to 10000 nM

**Q.** Which EC50 does the source give for N#Cc1ccc(CN2CCC(NC(=O)c3ccc(Nc4ccc(Cc5ccccc5)cc4)cn3)CC2)cc1 [Compound 108, 5-(4-benzylphenylamino)-N-(1-(4-cyanobenzyl)piperidin-4-yl)picolinamide] here?
**A.** 500 to 1000 nM

**Q.** How did the EC50 turn out when N#Cc1ccc(CN2CCC(NC(=O)c3ccc(Nc4ccc(-c5ccccc5)cc4)cn3)CC2)cc1 [Compound 109, 5-(biphenyl-4-ylamino)-N-(1-(4-cyanobenzyl)piperidin-4-yl)picolinamide] was run?
**A.** 5000 to 10000 nM

**Q.** For N#Cc1ccc(CN2CCC(NC(=O)c3ccc(N4CCN(Cc5ccccc5)CC4)cn3)CC2)cc1 [Compound 110, 5-(4-benzylpiperazin-1-yl)-N-(1-(4-cyanobenzyl)piperidin-4-yl)picolinamide], which EC50 is on record?
**A.** 1000 to 5000 nM

**Q.** Which EC50 does the source give for CC(C)(c1ccc(C#N)cc1)N1CCC(NC(=O)c2ccc(C(=O)N3CCN(Cc4ccc(F)cc4)CC3)cn2)CC1 [Compound 111, N-(1-(2-(4-cyanophenyl)propan-2-yl)piperidin-4-yl)-5-(4-(4-fluorobenzyl)piperazine-1-carbonyl)picolinamide] here?
**A.** 1000 to 5000 nM

**Q.** Which EC50 does the source give for O=C(NC1CCN(Cc2ccccc2)CC1)c1ccc(Nc2cccc(Oc3ccccc3)c2)cn1 [Compound 112, N-(1-benzylpiperidin-4-yl)-5-(3-phenoxyphenylamino)picolinamide] here?
**A.** 1000 to 5000 nM

**Q.** O=C(NC1CCN(Cc2ccccc2)CC1)c1ccc(Nc2ccc(Oc3ccccc3)cc2)cn1 [Compound 113, N-(1-benzylpiperidin-4-yl)-5-(4-phenoxyphenylamino)picolinamide] was tested. Which EC50 did it give?
**A.** 1000 to 5000 nM

**Q.** For O=C(NC1CCN(Cc2ccccc2)CC1)c1ccc(Nc2cccc(-c3ccccc3)c2)cn1 [Compound 114, N-(1-benzylpiperidin-4-yl)-5-(biphenyl-3-ylamino)picolinamide], which EC50 is on record?
**A.** 1000 to 5000 nM

**Q.** For O=C(NCc1ccccc1)c1ccc(C(=O)N2CCN(Cc3ccc(F)cc3)CC2)cn1 [Compound 115, N-benzyl-5-(4-(4-fluorobenzyl)piperazine-1-carbonyl)picolinamide], which EC50 is on record?
**A.** 5000 to 10000 nM

**Q.** With O=C(NCc1ccccc1)c1ccc(C(=O)N2CCN(Cc3ccccc3)CC2)cn1 [Compound 116, N-benzyl-5-(4-benzylpiperazine-1-carbonyl)picolinamide] as the molecule, how does the EC50 read?
**A.** 1000 to 5000 nM

**Q.** For COc1ccc(CN2CCC(NC(=O)c3ccc(C(=O)N4CCN(Cc5ccc(F)cc5)CC4)cn3)CC2)cc1 [Compound 117, 5-(4-(4-fluorobenzyl)piperazine-1-carbonyl)-N-(1-(4-methoxybenzyl)piperidin-4-yl)picolinamide], which EC50 is on record?
**A.** < 500 nM

**Q.** How did the EC50 turn out when N#Cc1ccc(CN2CC[C@@H](NC(=O)c3ccc(C(=O)N4CCN(Cc5ccc(F)cc5)CC4)cn3)C2)cc1 [Compound 118, (R)-N-(1-(4-cyanobenzyl)pyrrolidin-3-yl)-5-(4-(4-fluorobenzyl)piperazine-1-carbonyl)picolinamide] was run?
**A.** < 500 nM

**Q.** For N#Cc1ccc(-c2ccc(Nc3ccc(C(=O)NC4CCN(Cc5ccccc5)CC4)nc3)cc2)cc1 [Compound 119, N-(1-benzylpiperidin-4-yl)-5-(4′-cyanobiphenyl-4-ylamino)picolinamide], which EC50 is on record?
**A.** 1000 to 5000 nM

**Q.** Which EC50 does the source give for COc1ccc(-c2ccc(Nc3ccc(C(=O)NC4CCN(Cc5ccccc5)CC4)nc3)cc2)cc1 [Compound 120, N-(1-benzylpiperidin-4-yl)-5-(4′-methoxybiphenyl-4-ylamino)picolinamide] here?
**A.** > 10000 nM

**Q.** N#Cc1ccc(CN2CCC(NC(=O)c3ccc(-c4cn(Cc5ccccc5)nn4)cn3)CC2)cc1 [Compound 121, 5-(1-benzyl-1H-1,2,3-triazol-4-yl)-N-(1-(4-cyanobenzyl)piperidin-4-yl)picolinamide] was tested. Which EC50 did it give?
**A.** 1000 to 5000 nM

**Q.** N#Cc1ccc(CN2CC[C@H](NC(=O)c3ccc(C(=O)N4CCN(Cc5ccc(F)cc5)CC4)cn3)C2)cc1 [Compound 123, (S)-N-(1-(4-cyanobenzyl)pyrrolidin-3-yl)-5-(4-(4-fluorobenzyl)piperazine-1-carbonyl)picolinamide] was tested. Which EC50 did it give?
**A.** < 500 nM

**Q.** Which EC50 does the source give for N#Cc1ccc(CN2CCC(NC(=O)c3ccc(C(=O)N4CCC(Cc5ccccc5)CC4)cn3)CC2)cc1 [Compound 124, 5-(4-benzylpiperidine-1-carbonyl)-N-(1-(4-cyanobenzyl)piperidin-4-yl)picolinamide] here?
**A.** < 500 nM

**Q.** CC1(C)CN(C(=O)c2ccc(C(=O)NC3CCN(Cc4ccc(C#N)cc4)CC3)nc2)CCN1Cc1ccc(F)cc1 [Compound 125, N-(1-(4-cyanobenzyl)piperidin-4-yl)-5-(4-(4-fluorobenzyl)-3,3-dimethylpiperazine-1-carbonyl)picolinamide] was tested. Which EC50 did it give?
**A.** < 500 nM

**Q.** With N#Cc1ccc(CN2CCC(NC(=O)c3ccc(NC4CCN(c5ccccc5)CC4)cn3)CC2)cc1 [Compound 126, N-(1-(4-cyanobenzyl)piperidin-4-yl)-5-(1-phenylpiperidin-4-ylamino)picolinamide] as the molecule, how does the EC50 read?
**A.** < 500 nM

**Q.** How did the EC50 turn out when N#Cc1ccc(CC2CCN(C(=O)c3ccc(C(=O)NC4CCN(Cc5ccc(C#N)cc5)CC4)nc3)CC2)cc1 [Compound 128, N-(1-(4-cyanobenzyl)piperidin-4-yl)-5-(4-(4-cyanobenzyl)piperidine-1-carbonyl)picolinamide] was run?
**A.** < 500 nM

**Q.** Which EC50 does the source give for COc1ccc(C(=O)C2CCN(C(=O)c3ccc(C(=O)NC4CCN(Cc5ccc(C#N)cc5)CC4)nc3)CC2)cc1 [Compound 129, N-(1-(4-cyanobenzyl)piperidin-4-yl)-5-(4-(4-methoxybenzoyl)piperidine-1-carbonyl)picolinamide] here?
**A.** < 500 nM

**Q.** With N#Cc1ccc(CN2CCC(NC(=O)c3ccc(C(=O)N4CCC(Cc5ccc(F)cc5)CC4)cn3)CC2)cc1 [Compound 130, N-(1-(4-cyanobenzyl)piperidin-4-yl)-5-(4-(4-fluorobenzyl)piperidine-1-carbonyl)picolinamide] as the molecule, how does the EC50 read?
**A.** < 500 nM

**Q.** For COc1ccc(CC2CCN(C(=O)c3ccc(C(=O)NC4CCN(Cc5ccc(C#N)cc5)CC4)nc3)CC2)cc1 [Compound 131, N-(1-(4-cyanobenzyl)piperidin-4-yl)-5-(4-(4-methoxybenzyl)piperidine-1-carbonyl)picolinamide], which EC50 is on record?
**A.** < 500 nM

**Q.** Which EC50 does the source give for N#Cc1ccc(CN2CCc3ccc(NC(=O)c4ccc(C(=O)N5CCN(Cc6ccc(F)cc6)CC5)cn4)cc3C2)cc1 [Compound 132, N-(2-(4-cyanobenzyl)-1,2,3,4-tetrahydroisoquinolin-7-yl)-5-(4-(4-fluorobenzyl)piperazine-1-carbonyl)picolinamide] here?
**A.** < 500 nM

**Q.** How did the EC50 turn out when CC(C)(c1ccccc1)N1CCN(C(=O)c2ccc(C(=O)NC3CCN(Cc4ccc(C#N)cc4)CC3)nc2)CC1 [Compound 133, N-(1-(4-cyanobenzyl)piperidin-4-yl)-5-(4-(2-phenylpropan-2-yl)piperazine-1-carbonyl)picolinamide] was run?
**A.** < 500 nM

**Q.** Which EC50 does the source give for N#Cc1ccc(CN2CCC(NC(=O)c3ccc(C(=O)N4CCC(c5ccc(Cl)cc5)CC4)cn3)CC2)cc1 [Compound 134, 5-(4-(4-chlorophenyl)piperidine-1-carbonyl)-N-(1-(4-cyanobenzyl)piperidin-4-yl)picolinamide] here?
**A.** < 500 nM

**Q.** For N#Cc1ccc(CN2CCC(NC(=O)c3ccc(C(=O)N4CCC(Oc5ccc(C#N)cc5)CC4)cn3)CC2)cc1 [Compound 135, N-(1-(4-cyanobenzyl)piperidin-4-yl)-5-(4-(4-cyanophenoxy)piperidine-1-carbonyl)picolinamide], which EC50 is on record?
**A.** < 500 nM

**Q.** With N#Cc1ccc(CN2CCC(NC(=O)c3ccc(C(=O)N4CCC(C(=O)c5ccc(F)cc5)CC4)cn3)CC2)cc1 [Compound 136, N-(1-(4-cyanobenzyl)piperidin-4-yl)-5-(4-(4-fluorobenzoyl)piperidine-1-carbonyl)picolinamide] as the molecule, how does the EC50 read?
**A.** < 500 nM

**Q.** N#Cc1ccc(CN2CCC(NC(=O)c3ccc(C(=O)N4CCCC(Oc5ccc(C#N)cc5)C4)cn3)CC2)cc1 (stereo not shown) [Compound 137, N-(1-(4-cyanobenzyl)piperidin-4-yl)-5-(3-(4-cyanophenoxy)piperidine-1-carbonyl)picolinamide] was tested. Which EC50 did it give?
**A.** < 500 nM

**Q.** For N#Cc1ccc(CN2CCC(NC(=O)c3ccc(C(=O)N4CCC(C(F)c5ccc(F)cc5)CC4)cn3)CC2)cc1 (stereo not shown) [Compound 138, N-(1-(4-cyanobenzyl)piperidin-4-yl)-5-(4-(fluoro(4-fluorophenyl)methyl)piperidine-1-carbonyl)picolinamide], which EC50 is on record?
**A.** < 500 nM

**Q.** Which EC50 does the source give for N#Cc1ccc(CN2CCC(NC(=O)c3ccc(NC4CCN(c5ccc(Cl)cc5)CC4)cn3)CC2)cc1 [Compound 139, 5-(1-(4-chlorophenyl)piperidin-4-ylamino)-N-(1-(4-cyanobenzyl)piperidin-4-yl)picolinamide] here?
**A.** < 500 nM

**Q.** For N#Cc1ccc(CN2CCC(NC(=O)c3ccc(C(=O)N4CCN(Cc5cc(F)cc(F)c5)CC4)cn3)CC2)cc1 [Compound 140, N-(1-(4-cyanobenzyl)piperidin-4-yl)-5-(4-(3,5-difluorobenzyl)piperazine-1-carbonyl)picolinamide], which EC50 is on record?
**A.** < 500 nM

**Q.** Which EC50 does the source give for N#Cc1ccc(CN2CCC(NC(=O)c3ccc(C(=O)N4CCC(Cc5ccc(C(N)=O)cc5)CC4)cn3)CC2)cc1 [Compound 141, 5-(4-(4-carbamoylbenzyl)piperidine-1-carbonyl)-N-(1-(4-cyanobenzyl)piperidin-4-yl)picolinamide] here?
**A.** 500 to 1000 nM
